Key:
[1] = test system: three-week old E. faecalis biofilm; test: biofilm disruption assay on infected dentin samples (Example 2); format: cell-based, E. faecalis (ATCC 29212); settings: immersion 5 minutes
Procedure: Unidentified intact human teeth were collected, stored in 0.1% thymol solution at 4° C., and used within 6 months after obtaining local Institutional Review Board approval (IRB #1409251353). A standardized radicular dentin sample (4×4×1 mm^3) was obtained from each root using a slow diamond saw (IsoMet, Buehler, Lake Bluff, Ill.) under continuous distilled water irrigation. The pulpal side of each specimen was wet-finished with silicon carbide abrasive papers (500-2400 grit, Struers, Cleveland, Ohio). The polished samples were then sonicated in deionized water for 3 minutes, washed with sterile water, wrapped individually with moist cotton pellets, placed in Whirl-pak bags (Sigma-Aldrich, St Louis, Mo.), gas sterilized with ethylene oxide, and stored at 4° C. until used. E. faecalis (ATCC 29212) was grown initially on anaerobic blood agar plates (CDC, BioMerieux, Durham, N.C.). Colonies of E. faecalis were then suspended in brain-heart infusion (BHI) broth supplemented with 5 grams yeast extract/L (BHI-YE) and incubated for 24 hours at 37° C. with 5% CO2. Dentin samples were placed individually in separate wells of a 96-sterile well plate (Fisherbrand, Fischer Scientific) with the pulpal side facing upwards. […] The CFUs/mL were quantified using an automated colony counter (Synbiosis, Inc., Frederick, Md.). Summary statistics were calculated for the log-transformed data from each group. […]

[2] = test system: stem cells from apical papillae and dental pulp stem cells; settings: 2% CHX; in vitro studies; cited from earlier work

Structure (SMILES) | antibiofilm effect (log CFU/mL) ([1]; 2% CHX, versus control groups, not complete eradication) | effect on survival and attachment of stem cells from apical and dental pulp [2] | antibiofilm effect (log CFU/mL) ([1]; 1.5% NaOCl)
N=C(NCCCCCCNC(=N)NC(=N)Nc1ccc(Cl)cc1)NC(=N)Nc1ccc(Cl)cc1 [CHX] | significant reduction in E. faecalis biofilm | highly unfavorable effects | –
OCl [NaOCl, sodium hypochlorite] | – | – | complete eradication
